# Patent US8871443B2, “Schizophrenia-related isoform of KCNH2 and development of antipsychotic drugs” (The United States of America, as represented by the …, priority 2007, dated 2014)
# What was measured:
# [1] = test system: NOS3 mRNA expression; experiment: NOS3 expression in frontal cortex of neuroleptic treated rats; type: in vivo, rat; settings: one of three doses for 28 days, vs vehicle
# Method: (§1) Referring to FIG. 19, 8-10 rats per treatment group were treated with one of three doses of either Haloperidol (0.08, 0.6, and 1 mg/kg) or Clozapine (0.5, 5, 10 mg/kg) for 28 days (as compared to rats treated with vehicle alone). Frontal cortex expression levels of NOS3 (ABI assay Rn02132634_sl) and KCNH2-1A (ABI assay Rn01442523_ml) were normalized to the geometric mean of two housekeeping genes (GAPDH, B2M). Effects of antipsychotic treatment on gene expression were tested by linear regression with gene expression as the dependent variable. Differences between vehicle alone and the two therapeutic range equivalent dosages (0.08 and 0.6 mg/kg/day of Haloperidol; 0.5 and 5 mg/kg/day of Clozapine) were tested using post-hoc LSD.
# [2] = test system: KCNH2-1A mRNA expression; experiment: KCNH2-1A expression in frontal cortex of neuroleptic treated rats; settings: for change in KCNH2-1A expression, frontal cortex: 28 days; for effect on KCNH2-1A expression within the frontal cortex: one of three doses for 28 days, vs vehicle
# Method: as §1
# [3] = test system: patients with schizophrenia; experiment: CATIE trial, time to discontinuation of olanzapine (Cox proportional hazard model); type: in vivo, human; settings: for hazard ratio (HR) of discontinuation of medication: n=89; for Time to discontinuation, Est (COX proportional hazard model) / Time to discontinuation, HR (hazard ratio): n = 89, event = 46
# From the text: The second cohort consisted of patients randomly assigned to five medications during the Phase 1/1A (first drug assigned) of the Clinical Antipsychotic Trials of Intervention Effectiveness (CATIE), (Stroup T S, McEvoy J P, Swartz M S, et al. The National Institute of Mental Health Clinical Antipsychotic Trials of Intervention Effectiveness (CATIE) project: Schizophrenia trial design and protocol development. Schizophr. Bull. 2003; 29(1):15-31) a clinical trial to compare the effectiveness of antipsychotic drugs. Patients were initially randomly assigned to receive olanzapine, perphenazine, quetiapine, risperidone or ziprasidone under double-blind conditions and followed up for 18 months or until treatment was discontinued or switched to another antipsychotic (i.e. Phase 2). Eligible patients were 18 to 65 years of age, had received a diagnosis of schizophrenia based on DSM-IV criteria 26 and were able to take oral antipsychotic medication. The primary outcome measure in the CATIE sample was time to medication discontinuation, most often due to lack of efficacy or side-effects. PANSS ratings were included as a secondary efficacy outcome. Details on the CATIE trial methods have been previously published. (Stroup T S, McEvoy J P, Swartz M S, et al. The National Institute of Mental Health Clinical Antipsychotic Trials of Intervention Effectiveness (CATIE) project: Schizophrenia trial design and protocol development. Schizophr. Bull. 2003; 29(1):15-31.) For consistency with the NIMH inpatient study and to reduce effects of genetic heterogeneity, only Caucasian subjects were included for analysis. Because of the outpatient and parallel design of this study, information about compliance based on drug clearance is an important factor determining symptom change during the CATIE trial. (Bigos K L, Pollock B G, Coley K C, et al. Sex, race, and smoking impact olanzapine exposure. Journal of Clinical Pharmacology. 2008; 48(2):157-165; Bigos K L, Bies R R, Pollock B G, Lowy J J, Zhang F, Weinberger D R. Genetic Variation in CYP3A43 Explains Racial Difference in Olanzapine Clearance. Molecular Psychiatry. In Press.) Thus, we only analyzed treatment response from subjects on whom we had drug clearance data (N=364) (Bigos K L, Pollock B G, Coley K C, et al. Sex, race, and smoking impact olanzapine exposure. Journal of Clinical Pharmacology. 2008; 48(2):157-165). Drug clearance was estimated using population pharmacokinetic modeling of drug concentrations and used in the statistical analysis of treatment response as previously described. (Bigos K L, Pollock B G, Coley K C, et al. Sex, race, and smoking impact olanzapine exposure. Journal of Clinical Pharmacology. 2008; 48(2):157-165. Bigos K L, Bies R R, Pollock B G, Lowy J J, Zhang F, Weinberger D R. Genetic Variation in CYP3A43 Explains Racial Difference in Olanzapine Clearance. Molecular Psychiatry. In Press.)
# We genotyped three SNPs rs3900779, rs748693 and rs1036145 in KCNH2 which have been associated with schizophrenia and with expression of the novel KCNH2 3.1 isoform in human post-mortem brain. (Huffaker S J, Chen J S, Nicodemus K K, et al. A primate-specific, brain isoform of KCNH2 affects cortical physiology, cognition, neuronal repolarization and risk of schizophrenia. Nat. Med. May 2009; 15(5):509-518.) Genotypes were determined using the 5′-exonuclease fluorescent Taqman assay (assay by design or assay on demand) and the allelic discrimination was read on an ABI 7900 SDS system (Applied Biosystems, Foster City, Calif.). (Livak K J. Allelic discrimination using fluorogenic probes and the 5′ nuclease assay. Genet. Anal.-Biomol. Eng. February 1999; 14(5-6):143-149.)
# We also attempted to examine time to discontinuation of medication, which was a primary outcome measure of the CATIE trial. […]
# [4] = rs748693, second genotype line (genotype not given) vs non-risk allele homozygote
# [5] = rs748693 GG genotype vs non-risk allele homozygote
# [6] = rs1036145, second genotype line (genotype not given) vs non-risk allele homozygote
# [7] = rs1036145 TT genotype vs non-risk allele homozygote
# [8] = rs3900779, second genotype line (genotype not given) vs reference
# [9] = rs3900779, third genotype line (genotype not given) vs reference
structure (smiles),measurement,setting,value
O=C(CCCN1CCC(O)(c2ccc(Cl)cc2)CC1)c1ccc(F)cc1 [haloperidol],effect on NOS3 expression within the frontal cortex,[1],Neither clozapine nor haloperidol showed significant effects
same,"change in KCNH2-1A expression, frontal cortex","[2]; 0.08 mg/kg/day, did not reach significance (p=0.082)",slight decrease
same,"change in KCNH2-1A expression, frontal cortex","[2]; 0.6 mg/kg/day, did not reach significance (p=0.119)",slight decrease
same,effect on KCNH2-1A expression within the frontal cortex,[2],Neither clozapine nor haloperidol showed significant effects
CN1CCN(C2=Nc3cc(Cl)ccc3Nc3ccccc32)CC1 [clozapine],effect on KCNH2-1A expression within the frontal cortex,[2],Neither clozapine nor haloperidol showed significant effects
Cc1cc2c(s1)Nc1ccccc1N=C2N1CCN(C)CC1 [olanzapine],times less likely to have discontinued medication,[3]; GG genotype at rs748693 vs non-risk allele homozygote,~4 times
same,hazard ratio (HR) of discontinuation of medication,"[3]; GG genotype at rs748693 vs non-risk allele homozygote, p=0.031",0.254
same,times less likely to have discontinued medication,[3]; TT genotype at rs1036145 vs non-risk allele homozygote,~5 times
same,hazard ratio (HR) of discontinuation of medication,"[3]; TT genotype at rs1036145 vs non-risk allele homozygote, p=0.033",0.208
same,"Time to discontinuation, Est (COX proportional hazard model)",[3]; [4],−0.119
same,"Time to discontinuation, HR (hazard ratio)",[3]; [4],0.888
same,"Time to discontinuation, Est (COX proportional hazard model)",[3]; [5],−1.371
same,"Time to discontinuation, HR (hazard ratio)",[3]; [5],0.254
same,"Time to discontinuation, Est (COX proportional hazard model)",[3]; [6],−0.06
same,"Time to discontinuation, HR (hazard ratio)",[3]; [6],0.942
same,"Time to discontinuation, Est (COX proportional hazard model)",[3]; [7],−1.569
same,"Time to discontinuation, HR (hazard ratio)",[3]; [7],0.208
same,"Time to discontinuation, Est (COX proportional hazard model)",[3]; [8],−0.431
same,"Time to discontinuation, HR (hazard ratio)",[3]; [8],0.65
same,"Time to discontinuation, Est (COX proportional hazard model)",[3]; [9],−0.688
same,"Time to discontinuation, HR (hazard ratio)",[3]; [9],0.503
